Read-outs that look alike come from different tables or passages of the source.
Key:
[1] = background statement, no test described; cited from earlier work
[2] = tested on: A-549; experiment: Cytotoxic activity IC50, A-549; settings: Homo sapiens, A549, read-out: CYTOTOXIC ACTIVITIY IC50 (μM) A-549
[3] = tested on: HT-29; experiment: Cytotoxic activity IC50, HT-29; settings: Homo sapiens, HT-29, read-out: CYTOTOXIC ACTIVITIY IC50 (μM) HT-29
[4] = tested on: MEL-28; experiment: Cytotoxic activity IC50, MEL-28; settings: Homo sapiens, SK-MEL-28, read-out: CYTOTOXIC ACTIVITIY IC50 (μM) MEL-28
[5] = Cytotoxic activity IC50, CV-1; settings: African green monkey, CV-1 cells
[6] = tested on: P-388; experiment: Cytotoxic activity IC50, P-388; settings: Mus musculus, P388, read-out: CYTOTOXIC ACTIVITIY IC50 (μM) P-388
[7] = tested on: DU-145; experiment: Cytotoxic activity IC50, DU-145; settings: Homo sapiens, DU-145, read-out: CYTOTOXIC ACTIVITIY IC50 (μM) DU-145
[8] = tested on: FADU; experiment: Cytotoxic activity (M) panel, Pharnynx FADU; settings: Homo sapiens, read-out: CYTOTOXIC ACTIVITY (M) FADU
[9] = tested on: PC3; experiment: Cytotoxic activity (M) panel, Prostate PC3; settings: Homo sapiens, PC-3, read-out: CYTOTOXIC ACTIVITY (M) PC3
[10] = tested on: MX-1; experiment: Cytotoxic activity (M) panel, Breast MX-1; settings: Homo sapiens, MX1, read-out: CYTOTOXIC ACTIVITY (M) MX-1
[11] = tested on: SK-OV-3; experiment: Cytotoxic activity (M) panel, Ovary SK-OV-3; settings: Homo sapiens, SK-OV-3, read-out: CYTOTOXIC ACTIVITY (M) SK-OV-3
[12] = tested on: Y-79; experiment: Cytotoxic activity (M) panel, Retinoblastoma Y-79; settings: Homo sapiens, Y79, read-out: CYTOTOXIC ACTIVITY (M) Y-79
[13] = tested on: PANC-1; experiment: Cytotoxic activity (M) panel, Pancreas PANC-1; settings: Homo sapiens, PANC-1, read-out: CYTOTOXIC ACTIVITY (M) PANC-1
[14] = tested on: 5637; experiment: Cytotoxic activity (M) panel, Bladder 5637; settings: read-out: CYTOTOXIC ACTIVITY (M) 5637
[15] = tested on: DU-145; experiment: Cytotoxic activity (M) panel, Prostate DU-145; settings: Homo sapiens, DU-145, read-out: CYTOTOXIC ACTIVITY (M) DU-145
[16] = tested on: MEL-28; experiment: Cytotoxic activity (M) panel, Melanoma Mel-28; settings: Homo sapiens, SK-MEL-28, read-out: CYTOTOXIC ACTIVITY (M) Mel-28
[17] = tested on: HT-29; experiment: Cytotoxic activity (M) panel, Colon HT-29; settings: Homo sapiens, HT-29, read-out: CYTOTOXIC ACTIVITY (M) HT-29
[18] = tested on: CHSA; experiment: Cytotoxic activity (M) panel, Chondrosarcoma CHSA; settings: read-out: CYTOTOXIC ACTIVITY (M) CHSA
[19] = tested on: SW-694; experiment: Cytotoxic activity (M) panel, Fibrosarcoma SW-694; settings: read-out: CYTOTOXIC ACTIVITY (M) SW-694
[20] = tested on: OSA-FH; experiment: Cytotoxic activity (M) panel, Osteosarcoma OSA-FH; settings: read-out: CYTOTOXIC ACTIVITY (M) OSA-FH
[21] = tested on: A549; experiment: Cytotoxic activity (M) panel, NSCL A549; settings: Homo sapiens, A549, read-out: CYTOTOXIC ACTIVITY (M) A549
[22] = tested on: Hs746t; experiment: Cytotoxic activity (M) panel, Gastric Hs746t; settings: Homo sapiens, read-out: CYTOTOXIC ACTIVITY (M) Hs746t
[23] = tested on: LNCAP; experiment: Cytotoxic activity (M) panel, Prostate LNCAP; settings: Homo sapiens, read-out: CYTOTOXIC ACTIVITY (M) LNCAP
[24] = tested on: SK-HEP-1
[25] = tested on: 786-O; experiment: Cytotoxic activity (M) panel, Renal 786-O; settings: Homo sapiens, 786-0, read-out: CYTOTOXIC ACTIVITY (M) 786-O
[26] = tested on: NCI-H187; experiment: Cytotoxic activity (M) panel, SCL NCI-H187; settings: Homo sapiens, NCI-H187, read-out: CYTOTOXIC ACTIVITY (M) NCI-H187
[27] = tested on: Hut 78; settings: human
[28] = tested on: H9; settings: human
[29] = tested on: RAMOS; settings: human
[30] = tested on: Molt 3; settings: human
[31] = tested on: HL60; settings: human
[32] = tested on: MC116; settings: human
[33] = tested on: 5637
[34] = tested on: SK-HEP-1; experiment: Cytotoxic activity (M) panel, Liver SK-HEP-1; settings: Homo sapiens, SK-HEP1, read-out: CYTOTOXIC ACTIVITY (M) SK-HEP-1
[35] = tested on: K562; experiment: cells; settings: Homo sapiens, K562, read-out: CYTOTOXIC ACTIVITY (M) K562
[36] = tested on: H9; experiment: cells; settings: Homo sapiens, H9, read-out: CYTOTOXIC ACTIVITY (M) H9, leukemias & lymphomas, Lymphoma T-cell, line H9
[37] = tested on: Y-79
[38] = tested on: MX-1
[39] = tested on: NCI-H187
[40] = tested on: A549
[41] = tested on: PC3
[42] = tested on: OSA-FH

SMILES | IC50 [8] [M] | IC50 [10] [M] | IC50 [11] [M] | IC50 [12] [M] | IC50 [13] [M] | IC50 [14] [M] | IC50 [16] [M] | IC50 [17] [M] | IC50 [18] [M] | IC50 [20] [M] | IC50 [22] [M] | IC50 [23] [M] | IC50 [25] [M] | IC50 [26] [M] | IC50 [34] [M] | other results
COC1=C(C)C(=O)C2=C(C1=O)[C@@H]1[C@@H]3Cc4c(OC(=O)CO)c(C)c(OC)c(O)c4[C@H](CNC(=O)C(C)=O)N3[C@@H](C#N)[C@H](C2)N1C [Saframycin R] |  |  |  |  |  |  |  |  |  |  |  |  |  |  |  | toxicity [1]: moderate toxicity
COCOc1c(OC)c(C)cc2c1[C@@H]1C3Cc4c(OC(=O)C(F)(F)C(F)(F)C(F)(F)F)c(C)c5c(c4[C@H](CNC(=O)CCc4ccccc4)N3[C@@H](C#N)[C@H](C2)N1C)OCO5 (stereo partly drawn) |  |  |  |  |  |  |  |  |  |  |  |  |  |  |  | IC50 [2]: 0.5 µM; IC50 [3]: 0.5 µM; IC50 [4]: 0.5 µM; IC50 [5]: 500 nM; IC50 [6]: 0.5 µM; IC50 [7]: 0.5 µM
COc1c(C)cc2c(c1O)[C@@H]1C3Cc4c(OC(C)=O)c(C)c5c(c4[C@H](COC(=O)/C=C/c4cccc(C(F)(F)F)c4)N3[C@@H](O)[C@H](C2)N1C)OCO5 (stereo partly drawn) [drawing 233] | 4.59e-07 | 2.81e-08 | 7.03e-06 | 8.85e-10 | 1.03e-08 | 1.14e-08 | 1.76e-08 | 4.08e-07 | 2.53e-08 | 6.34e-08 | 3.57e-08 | 5.98e-07 | 1.46e-08 | 8.02e-10 |  | IC50 [9]: 7.88e-08 M; IC50 [15]: 7.03e-08 M; IC50 [19]: 3.38e-06 M; IC50 [21]: 2.81e-06 M; CYTOTOXIC ACTIVITY (M) SK-HEP-1 [24]: 1.63 to 08 M
COc1c(C)cc2c(c1O)[C@@H]1C3Cc4c(OC(C)=O)c(C)c5c(c4[C@H](COC(=O)/C=C/c4ccccc4)N3[C@@H](O)[C@H](C2)N1C)OCO5 (stereo partly drawn) [drawing 239] |  |  |  |  |  |  |  |  |  |  |  |  |  |  |  | IC50 [27]: 48.1 nM; IC50 [28]: 21.7 nM; IC50 [29]: 1.86 nM; IC50 [30]: 0.0869 nM; IC50 [31]: 3.1 nM; IC50 [32]: 0.0527 nM
COc1c(C)cc2c(c1O)[C@@H]1C3Cc4c(OC(C)=O)c(C)c5c(c4[C@H](CNC(=O)Cc4ccccc4)N3[C@@H](O)[C@H](C2)N1C)OCO5 (stereo partly drawn) [drawing 217] | 1.14e-09 |  |  | 7.78e-09 | 1.03e-08 |  | 4.48e-09 |  | 1.09e-08 | 9.5e-09 | 1.37e-07 |  | 1e-08 |  | 9.5e-09 | CYTOTOXIC ACTIVITY (M) 5637 [33]: 3.18 to 09 M
COc1c(C)cc2c(c1O)[C@@H]1C3Cc4c(OC(C)=O)c(C)c5c(c4[C@H](COC(=O)/C=C/c4ccccc4)N3[C@@H](O)[C@H](C2)N1C)OCO5 (stereo partly drawn) [drawing 238] |  |  |  |  |  |  |  |  |  |  |  |  |  |  |  | IC50 [27]: 7.31 nM; IC50 [35]: 6.13e-08 M; IC50 [29]: 0.715 nM; IC50 [36]: 1.91e-08 M; IC50 [30]: 2.48 nM; IC50 [31]: 13.4 nM; IC50 [32]: 6.38 nM
COc1c(C)cc2c(c1O)[C@@H]1C3Cc4c(OC(C)=O)c(C)c5c(c4[C@H](COC(=O)/C=C/c4ccccc4)N3[C@@H](O)[C@H](C2)N1C)OCO5 (stereo partly drawn) [drawing 234] | 2.46e-08 |  | 7.78e-08 |  | 9.47e-09 | 1.71e-08 | 5.89e-08 | 2.96e-07 | 4.49e-08 | 5.26e-07 | 1.24e-09 | 6.83e-08 | 5.26e-12 |  | 1.94e-09 | IC50 [37]: 0.0778 pM; IC50 [38]: 0.000725 nM; IC50 [39]: 0.0778 pM; IC50 [15]: 1.56e-06 M; CYTOTOXIC ACTIVITY (M) A549 [40]: 1.56 to 05 M; IC50 [19]: 6.69e-06 M
CCCC(=O)NC[C@H]1c2c(c(OC(C)=O)c(C)c3c2OCO3)CC2[C@H]3c4c(cc(C)c(OC)c4O)C[C@@H]([C@H](O)N21)N3C (stereo partly drawn) [drawing 225] | 7.94e-09 | 2.5e-06 | 2.21e-07 | 3.14e-09 | 2.9e-09 | 2.81e-09 | 3.05e-08 |  | 1.73e-08 | 8.56e-08 | 2.97e-08 | 5.39e-09 | 6.55e-09 | 3.98e-11 | 5.07e-09 | CYTOTOXIC ACTIVITY (M) PC3 [41]: 1.46-08 M
COc1c(C)cc2c(c1O)[C@@H]1C3Cc4c(OC(C)=O)c(C)c5c(c4[C@H](CNC(=O)[C@H](C)NC(=O)Cc4ccccc4)N3[C@@H](O)[C@H](C2)N1C)OCO5 (stereo partly drawn) [drawing 216] | 3.77e-08 | 2.85e-06 |  | 1.31e-11 | 2.58e-09 | 7.85e-10 | 1.13e-09 | 1.2e-10 | 2.25e-09 |  | 6.25e-09 |  | 2.9e-09 | 2.07e-12 | 9.03e-10 | IC50 [9]: 9.34e-09 M; CYTOTOXIC ACTIVITY (M) OSA-FH [42]: 1.35 to 08 M
